Measurements: patent publication US20060235222A1, “Indole-derivative modulators of steroid hormone nuclear receptors” (ELI LILLY AND COMPANY, priority 2003, published 2006)

How the values were obtained:
human MR = biological target: T1, human MR (Homo sapiens, UniProt P08235); test: Mineralocorticoid Receptor Binding Assay (Method 1), [3H]-aldosterone competition; conditions: 0.5 nM [3H]-aldosterone, human MR expressed in Sf9 cells
T1 construct: The full length human MR gene is cloned from a human kidney or human brain cDNA library; inferred from own knowledge of the pAcHLT vector (N); made in house; host or cells: Sf9 insect cells (baculovirus)
T1 sequence (P08235 1-984): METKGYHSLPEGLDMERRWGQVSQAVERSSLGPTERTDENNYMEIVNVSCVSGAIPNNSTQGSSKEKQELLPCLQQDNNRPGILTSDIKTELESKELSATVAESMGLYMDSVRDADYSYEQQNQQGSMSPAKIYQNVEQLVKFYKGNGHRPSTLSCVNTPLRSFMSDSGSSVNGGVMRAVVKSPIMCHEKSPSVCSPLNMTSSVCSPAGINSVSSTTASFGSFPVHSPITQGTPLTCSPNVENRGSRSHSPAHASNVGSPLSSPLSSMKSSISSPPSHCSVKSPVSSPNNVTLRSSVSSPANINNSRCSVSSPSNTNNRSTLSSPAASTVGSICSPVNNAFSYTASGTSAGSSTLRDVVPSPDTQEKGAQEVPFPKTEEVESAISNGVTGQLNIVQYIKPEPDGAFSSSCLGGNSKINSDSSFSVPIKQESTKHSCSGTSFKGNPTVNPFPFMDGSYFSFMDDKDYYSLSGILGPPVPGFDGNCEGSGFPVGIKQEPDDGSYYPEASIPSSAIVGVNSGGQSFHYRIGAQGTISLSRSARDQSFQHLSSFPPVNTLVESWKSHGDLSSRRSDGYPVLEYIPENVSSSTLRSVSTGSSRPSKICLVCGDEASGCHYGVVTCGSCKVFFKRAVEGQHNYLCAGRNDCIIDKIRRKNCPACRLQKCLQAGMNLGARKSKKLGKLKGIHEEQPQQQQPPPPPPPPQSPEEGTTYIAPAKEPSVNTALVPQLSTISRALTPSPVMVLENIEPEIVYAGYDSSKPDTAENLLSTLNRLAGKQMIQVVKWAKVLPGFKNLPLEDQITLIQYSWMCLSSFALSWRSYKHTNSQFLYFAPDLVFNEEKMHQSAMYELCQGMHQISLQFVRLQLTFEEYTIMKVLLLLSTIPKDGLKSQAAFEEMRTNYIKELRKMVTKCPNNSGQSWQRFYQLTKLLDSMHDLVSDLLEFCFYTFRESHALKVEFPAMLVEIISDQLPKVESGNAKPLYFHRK
Experimental: Mineralocorticoid Receptor Binding Assay (Method 1):
The full length human MR gene is cloned from a human kidney or human brain cDNA library. […] The PCR reaction is performed in a final volume of 50 μl containing about 1 μl of a 50× stock solution of polymerase; about 1 μl of a 50× stock solution of dNTP; about 5 μl of an appropriate PCR buffer; about 1 μl of each primer; about 5 μl of a H. kidney or H. brain cDNA library; and about 36 μl of water. The reaction is allowed to denature for about 30 seconds at 95 degrees Celsius, anneal for about 30 seconds at 55 degrees Celsius, and extend for about 5 minutes at 72 degrees Celsius, the sequence being repeated for a total of about 35 cycles. […] To extract the cDNA product from the agarose gel, the QIAEX II Gel Extraction protocol (QIAGEN, Inc.) is employed according to the manufacturer's instructions. Following extraction, the MR cDNA is cloned into an appropriate cloning vector (Zero Blunt TOPO PCR Cloning Kit (Invitrogen, Inc.) and a pAcHLT-baculovirus transfer vector (B.D./Pharminogen), then expressed in SF9 insect cells, essentially according to manufacturer's instructions. Sf9 cells are grown at a scale where gram quantity cell pellets are obtained for subsequent use in the MR binding assay. Harvested cell pellets are lysed by repeated freeze-thaw cycles (about 4) in a suitable lysis buffer then centrifuged at about 1×10^3 G (with the supernatant being saved for future assays).
MR binding assays are performed in a final total volume of about 250 μl containing about 20-25 μg of protein and 0.5 nM of [^3H]-aldosterone plus varying concentrations of test compound or vehicle. The assay binding buffer consists of 30 mM sodium molybdate, 30 mM of TRIS-HCl, 5 mM sodium phosphate, 5 mM sodium pyrophosphate, and about 10% glycerol, pH=7.5.
Incubations are carried out at 4 degrees Celsius with shaking for about 16 hours. 200 μl aliquots of each incubation are filtered onto Millipore HA 0.45 micron 96-well filter plates, pre-moistened with cold 30 mM TRIS-HCl. The filter plates are suctioned dry with vacuum and immediately washed 3× with cold 30 mM TRIS-HCl. The plates are then punched out and the amount of receptor-ligand complex is determined by liquid scintillation counting using 4 ml of Ready Protein Plus™ liquid scintillation cocktail.

glucocorticoid receptor = biological target: T2, glucocorticoid receptor (Homo sapiens, UniProt P04150); test: Glucocorticoid Receptor Binding Assay (Method 1), [3H]-dexamethasone competition, A549 cell extract; conditions: 1.86 nM [3H]-dexamethasone, read-out: GR Ki (nM) Method 1
T2 construct: containing 50-200 ug of A549 cell extract and 1.86 nM; host or cells: A549 human lung epithelial cells
T2 sequence (P04150 1-777): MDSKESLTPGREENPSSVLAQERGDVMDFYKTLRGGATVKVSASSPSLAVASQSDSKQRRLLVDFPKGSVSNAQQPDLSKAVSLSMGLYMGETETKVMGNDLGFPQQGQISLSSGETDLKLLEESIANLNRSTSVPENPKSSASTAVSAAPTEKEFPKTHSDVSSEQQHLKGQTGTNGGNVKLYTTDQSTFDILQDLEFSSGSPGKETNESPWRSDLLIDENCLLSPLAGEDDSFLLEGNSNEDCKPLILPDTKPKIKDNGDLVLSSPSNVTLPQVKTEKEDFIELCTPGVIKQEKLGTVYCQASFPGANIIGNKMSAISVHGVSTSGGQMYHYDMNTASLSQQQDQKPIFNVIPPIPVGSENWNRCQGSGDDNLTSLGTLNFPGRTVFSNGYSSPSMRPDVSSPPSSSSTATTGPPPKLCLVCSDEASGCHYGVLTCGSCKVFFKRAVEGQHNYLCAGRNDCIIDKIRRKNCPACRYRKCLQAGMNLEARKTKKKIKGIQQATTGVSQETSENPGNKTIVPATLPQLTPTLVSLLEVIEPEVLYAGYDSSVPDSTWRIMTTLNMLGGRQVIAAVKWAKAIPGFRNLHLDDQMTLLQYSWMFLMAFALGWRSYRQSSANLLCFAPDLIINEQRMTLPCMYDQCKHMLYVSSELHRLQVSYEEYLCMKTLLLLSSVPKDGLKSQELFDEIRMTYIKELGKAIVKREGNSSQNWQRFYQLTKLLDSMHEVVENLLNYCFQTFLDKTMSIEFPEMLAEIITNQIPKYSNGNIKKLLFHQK
Experimental: Glucocorticoid Receptor Binding Assay (Method 1):
A549 human lung epithelial cells (ATCC) are grown at a scale where gram quantity cell pellets are obtained. Harvested cell pellets are washed twice in cold phosphate buffered saline, centrifuged, and resuspended in cold assay binding buffer. The assay binding buffer consists of 10% glycerol, 50 mM Tris-HCl (pH7.2), 75 mM sodium chloride, 1.5 mM magnesium chloride, 1.5 mM EDTA, and 10 mM sodium molybdate. Cell suspensions were lysed via sonication, centrifuged, and the “extract” supernatant is snap frozen and stored at −80 C until needed.
Incubations are carried out at 4 degrees Celsius for 16 hours. After incubation, 70 ul of 3× dextran-coated charcoal solution is added to each reaction, mixed, and incubated for 8 minutes at RT. 3×-dextran-coated charcoal solution consists of 250 ml assay binding buffer, 3.75 g Norit A charcoal (Sigma), and 1.25 g dextran T-70 (Amersham). Charcoal/unbound radioligand complexes are removed by centrifugation of the plate and 140 ul of supernatant from each well is transferred to another 96 well Optiplate (Packard Instruments). 200 ul of Microscint-20 scinillant (Packard Instruments) is added to each well and amount of receptor bound radioligand is determined using Packard Instruments TopCount instrument.

Row | SMILES | Ki (human MR) [nM] | Ki (glucocorticoid receptor) [nM]
1 | CCC(CC)(c1cc2cc(Cl)ccc2o1)c1c[nH]c2c(NS(C)(=O)=O)cccc12 [Example 11, N-{3-[1-(5-Chloro-benzofuran-2-yl)-1-ethyl-propyl]-1H-indol-7-yl}-methanesulfonamide] | < 500 | < 10000
2 | CC(C)(c1ccc(-c2ccccc2)cc1)c1c[nH]c2c(NS(C)(=O)=O)cccc12 [Example 39, N-[3-(1-Biphenyl-4-yl-1-methyl-ethyl)-1H-indol-7-yl]-methanesulfonamide] | < 500 | < 1000
3 | CCCC(C)(c1ccsc1)c1c[nH]c2c(NS(C)(=O)=O)cccc12 (stereo not shown) [Example 10, N-[3-(1-Methyl-1-thiophen-3-yl-butyl)-1H-indol-7-yl]-methanesulfonamide] | < 500 | < 500
4 | CCC(CC)(c1cc2cccc(OC)c2o1)c1c[nH]c2c(NS(C)(=O)=O)cccc12 [Example 4, N-{3-[1-Ethyl-1-(7-methoxy-benzofuran-2-yl)-propyl]-1H-indol-7-yl}-methanesulfonamide] | < 500 | < 500
5 | CCCC(C)(c1ccc(OC(F)(F)F)cc1)c1c[nH]c2c(N)cccc12 (stereo not shown) [Example 35] | < 500 | < 10000
6 | CC(C)(c1ccc(F)cc1)c1c[nH]c2c(NS(C)(=O)=O)cccc12 [Example 76, N-{3-[1-(4-Fluoro-phenyl)-1-methyl-ethyl]-1H-indol-7-yl}-methanesulfonamide] | < 500 | < 500
7 | CC(C)(c1cccc(-c2ccc(F)cc2)c1)c1c[nH]c2c(NS(C)(=O)=O)cccc12 [Example 36, N-{3-[1-(4′-Fluoro-biphenyl-3-yl)-1-methyl-ethyl]-1H-indol-7-yl}-methanesulfonamide] | < 500 | < 10000
8 | CCC(CC)(c1ccc(C(F)(F)F)cc1)c1c[nH]c2c(NS(C)(=O)=O)cccc12 [Example 63, N-{3-[1-Ethyl-1-(4-trifluoromethyl-phenyl)-propyl]-1H-indol-7-yl}-methanesulfonamide] | < 500 | < 500
9 | CC(c1ccccc1)(c1ccccc1)c1cn(CC(=O)O)c2ccccc12 [Example 42, [3-(1,1-Diphenyl-ethyl)-indol-1-yl]-acetic acid] | < 10000 | < 10000
10 | CCC(CC)(c1cc2ccccc2s1)c1c[nH]c2c(NS(C)(=O)=O)cccc12 [Example 6, N-[3-(1-Benzo[b]thiophen-2-yl-1-ethyl-propyl)-1H-indol-7-yl]-methanesulfonamide] | < 500 | < 500
11 | CCCC(C)(c1ccc(C)cc1)c1c[nH]c2c(NS(C)(=O)=O)cccc12 (stereo not shown) [Example 1, N-[3-(1-Methyl-1-p-tolyl-butyl)-1H-indol-7-yl]methane sulfonamide] | < 500 | < 500
12 | CCC(CC)(c1ccc(F)cc1)c1c[nH]c2c(N)cccc12 [Example 79, 3-[1-Ethyl-1-(4-fluoro-phenyl)-propyl]-1H-indol-7-ylamine] | < 500 | < 1000

Next, values leading:

Row | Ki (human MR) [nM] | Ki (glucocorticoid receptor) [nM] | SMILES
13 | < 500 | < 500 | CCC(CC)(c1ccc(F)c(F)c1)c1c[nH]c2c(NS(C)(=O)=O)cccc12 [Example 64, N-{3-[1-(3,4-Difluoro-phenyl)-1-ethyl-propyl]-1H-indol-7-yl}-methanesulfonamide]
14 | < 500 | < 500 | COc1ccc(C(C)(C)c2c[nH]c3c(NS(C)(=O)=O)cccc23)cc1 [Example 55, N-{3-[1-(4-Methoxy-phenyl)-1-methyl-ethyl]-1H-indol-7-yl}-methanesulfonamide]
15 | < 500 | < 500 | CC(C)(c1cc2ccccc2o1)c1c[nH]c2c(NS(C)(=O)=O)cccc12 [Example 9, N-[3-(1-Benzofuran-2-yl-1-methyl-ethyl)-1H-indol-7-yl]-methanesulfonamide]
16 | < 500 | < 500 | CCCC(C)(c1ccc(F)cc1)c1c[nH]c2c(NS(C)(=O)=O)cccc12 (stereo not shown) [Example 7, N-{3-[1-(4-Fluoro-phenyl)-1-methyl-butyl]-1H-indol-7-yl}-methanesulfonamide]
17 | < 500 | < 1000 | CCCC(C)(c1cccc(OC)c1)c1c[nH]c2c(N)cccc12 (stereo not shown) [Example 38, 3-[1-(3-Methoxy-phenyl)-1-methyl-butyl]-1H-indol-7-ylamine]
18 | < 500 | < 500 | Cc1cccc2c(C(C)(c3ccc(F)cc3)C3CC3)c[nH]c12 (stereo not shown) [Example 40, 3-[1-Cyclopropyl-1-(4-fluoro-phenyl)-ethyl]-7-methyl-1H-indole]
19 | < 500 | < 500 | CCCC(C)(c1ccc(OC)cc1)c1c[nH]c2c(N)cccc12 (stereo not shown) [Example 50, 3-[1-(4-Methoxy-phenyl)-1-methyl-butyl]-1H-indol-7-ylamine]
20 | < 500 | < 500 | CC(c1ccc(F)cc1)(c1c[nH]c2c(NS(C)(=O)=O)cccc12)C1CC1 (stereo not shown) [Example 5, N-{3-[1-Cyclopropyl-1-(4-fluoro-phenyl)-ethyl]-1H-indol-7-yl}-methanesulfonamide]
